Earlier results in article PMC10092221 (Journal of Clinical Pharmacology, 2022).

Details: itraconazole 200 mg daily; cited from earlier work

Cc1nnc2n1-c1ccc(Cl)cc1C(c1ccccc1Cl)=NC2 [triazolam]
Increase in exposure with itraconazole regimen: 27 fold
